Assay results as given in patent publication US9169260B2 (MERCK SHARP & DOHME CORP., priority 2011, dated 2015).

Molecular target: GST tagged IRAK-4 (Homo sapiens (Human), UniProt Q9NWZ3)
Assay: IRAK-4 Kinase Assay (IMAP fluorescence polarization)
Format: biochemical
Details: 100 μM ATP, 30 minutes at 25° C.
How it was run: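 Activity was read by IMAP fluorescence polarization, where phosphopeptide binding to M(III) nanoparticles raises FP. The 30-minute, 25° C reaction used 100 μM ATP, 100 nM RP7030 substrate and 0.5 nM GST-IRAK-4 in pH 7.2 Tris buffer with MgCl2, DTT and Tween 20.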

GST tagged IRAK-4, sequence (Q9NWZ3 whole entry): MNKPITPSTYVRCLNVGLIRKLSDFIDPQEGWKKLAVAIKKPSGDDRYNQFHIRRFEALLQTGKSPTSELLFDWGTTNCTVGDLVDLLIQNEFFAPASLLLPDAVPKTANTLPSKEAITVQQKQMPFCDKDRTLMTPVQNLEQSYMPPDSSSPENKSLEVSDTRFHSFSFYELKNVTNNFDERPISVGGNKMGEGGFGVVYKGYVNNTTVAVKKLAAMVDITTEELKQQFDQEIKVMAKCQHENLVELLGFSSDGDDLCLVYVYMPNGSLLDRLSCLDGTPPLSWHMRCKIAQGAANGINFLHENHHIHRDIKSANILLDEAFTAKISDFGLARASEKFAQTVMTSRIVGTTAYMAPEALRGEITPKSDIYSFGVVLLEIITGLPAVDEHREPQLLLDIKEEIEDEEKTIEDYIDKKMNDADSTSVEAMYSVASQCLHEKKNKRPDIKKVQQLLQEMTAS

IC50 (μM) [µM] | IC50 [µM] | Structure (SMILES)
< 1 | – | Cc1ccc(-n2nc(C3CCN(S(=O)(=O)c4cc(F)cc(F)c4)CC3)cc2NC(=O)c2cnn3cccnc23)cc1 [Example 360, N-[3-{1-[(3,5-difluorophenyl)sulfonyl]piperidin-4-yl}-1-(4-methylphenyl)-1H-pyrazol-5-yl]pyrazolo[1,5-a]pyrimidine-3-carboxamide]
– | < 0.1 | Cc1ccc(-n2nc(C3CCN(C4CCC4)CC3)cc2NC(=O)c2cnn3cccnc23)nc1 [Example 274, N-[3-(1-cyclobutylpiperidin-4-yl)-1-(5-methylpyridin-2-yl)-1H-pyrazol-5-yl]pyrazolo[1,5-a]pyrimidine-3-carboxamide]
– | < 0.1 | COc1ccc(-n2nc(C3CCNCC3)cc2NC(=O)c2cnn3cc(C(N)=O)cnc23)cc1 [Example 105, N3-(1-(4-methoxyphenyl)-3-(piperidin-4-yl)-1H-pyrazol-5-yl)pyrazolo[1,5-a]pyrimidine-3,6-dicarboxamide]
– | < 0.1 | Cc1ccc(-n2nc(C3CCN(C(C)C)CC3)cc2NC(=O)c2cnn3cccnc23)nc1 [Example 270, N-{3-[1-(1-methylethyl)piperidin-4-yl]-1-(5-methylpyridin-2-yl)-1H-pyrazol-5-yl}pyrazolo[1,5-a]pyrimidine-3-carboxamide]
– | < 0.1 | O=C(Nc1cc(C2CCNCC2)nn1-c1c(F)cc(C2CC2)cc1F)c1cnn2cccnc12 [Example 77, N-(1-(4-cyclopropyl-2,6-difluorophenyl)-3-(piperidin-4-yl)-1H-pyrazol-5-yl)pyrazolo[1,5-a]pyrimidine-3-carboxamide]
– | < 0.1 | Cc1ccc(-n2nc(C3CN(Cc4cncs4)C3)cc2NC(=O)c2cnn3cccnc23)cc1 [Example 312, N-{1-(4-methylphenyl)-3-[1-(1,3-thiazol-5-ylmethyl)azetidin-3-yl]-1H-pyrazol-5-yl}pyrazolo[1,5-a]pyrimidine-3-carboxamide]
< 1 | – | COc1ccc(S(=O)(=O)N2CCC(c3cc(NC(=O)c4cnn5cccnc45)n(-c4ccc(C)cc4)n3)CC2)c(OC)c1 [Example 372, N-[3-{1-[(2,4-dimethoxyphenyl)sulfonyl]piperidin-4-yl}-1-(4-methylphenyl)-1H-pyrazol-5-yl]pyrazolo[1,5-a]pyrimidine-3-carboxamide]
– | < 0.1 | Cc1ccc(-n2nc(N3CCOCC3)cc2NC(=O)c2cnn3cccnc23)nc1 [Example 202, N-(1-(5-methylpyridin-2-yl)-3-morpholino-1H-pyrazol-5-yl)pyrazolo[1,5-a]pyrimidine-3-carboxamide]
< 1 | – | Cc1ccc(-n2nc(C3CCN(C)CC3)cc2NC(=O)c2cnn3cc(Br)cnc23)cc1 [Example 111, 6-bromo-N-(3-(1-methylpiperidin-4-yl)-1-(p-tolyl)-1H-pyrazol-5-yl)pyrazolo[1,5-a]pyrimidine-3-carboxamide]
– | < 0.1 | CCN(CC)CCC(=O)N1CCC(c2cc(NC(=O)c3cnn4cc(Br)cnc34)n(-c3ccc(C)cc3)n2)CC1 [Example 114, 6-bromo-N-(3-(1-(3-(diethylamino)propanoyl)piperidin-4-yl)-1-(p-tolyl)-1H-pyrazol-5-yl)pyrazolo[1,5-a]pyrimidine-3-carboxamide]
< 1 | – | O=C(Nc1cc(C2CCN(S(=O)(=O)C3CC3)CC2)nn1-c1ccc(F)cc1)c1cnn2cccnc12 [Example 22, N-(3-(1-(cyclopropylsulfonyl)piperidin-4-yl)-1-(4-fluorophenyl)-1H-pyrazol-5-yl)pyrazolo[1,5-a]pyrimidine-3-carboxamide]
– | < 0.1 | Cc1ccc(-n2nc(C3CCN(C4CC(N(C)C)C4)CC3)cc2NC(=O)c2cnn3cccnc23)nc1 (stereo not shown) [Example 269, N-[3-{1-[3-(dimethylamino)cyclobutyl]piperidin-4-yl}-1-(5-methylpyridin-2-yl)-1H-pyrazol-5-yl]pyrazolo[1,5-a]pyrimidine-3-carboxamide]
< 1 | – | Cc1ccc(-n2nc(C3CCN(C(C)CC(F)(F)F)CC3)cc2NC(=O)c2cnn3cccnc23)cc1 (stereo not shown) [Example 260, N-{1-(4-methylphenyl)-3-[1-(3,3,3-trifluoro-1-methylpropyl)piperidin-4-yl]-1H-pyrazol-5-yl}pyrazolo[1,5-a]pyrimidine-3-carboxamide]
– | < 0.1 | Cc1ccc(-n2nc(C3CCN(S(C)(=O)=O)CC3)cc2NC(=O)c2cnn3cc(C#N)cnc23)nc1 [Example 191, 6-cyano-N-(1-(5-methylpyridin-2-yl)-3-(1-(methylsulfonyl)piperidin-4-yl)-1H-pyrazol-5-yl)pyrazolo[1,5-a]pyrimidine-3-carboxamide]
< 1 | – | Cc1ccc(-n2nc(C3CN(S(C)(=O)=O)C3)cc2NC(=O)c2cnn3cccnc23)cc1 [Example 83, N-(3-(1-(methylsulfonyl)azetidin-3-yl)-1-(p-tolyl)-1H-pyrazol-5-yl)pyrazolo[1,5-a]pyrimidine-3-carboxamide]
< 1 | – | Cc1ccc(-n2nc(C3CCN(C4CN(S(=O)(=O)C5CC5)C4)CC3)cc2NC(=O)c2cnn3cccnc23)cc1 [Example 245, N-[3-{1-[1-(cyclopropylsulfonyl)azetidin-3-yl]piperidin-4-yl]-1-(4-methylphenyl)-1H-pyrazol-5-yl}pyrazolo[1,5-a]pyrimidine-3-carboxamide]

IC50 (μM) [µM] | IC50 [µM] | Structure (SMILES)
– | < 0.1 | COc1ccc(-n2nc(C3CCN(S(=O)(=O)C(C)C)CC3)cc2NC(=O)c2cnn3cccnc23)cc1 [Example 23, N-(3-(1-(isopropylsulfonyl)piperidin-4-yl)-1-(4-methoxyphenyl)-1H-pyrazol-5-yl)pyrazolo[1,5-a]pyrimidine-3-carboxamide]
– | < 0.1 | Cc1ccc(-n2nc(C3CCN(C4CC5(CCCC5)C4)CC3)cc2NC(=O)c2cnn3cccnc23)cc1 [Example 257, N-[1-(4-methylphenyl)-3-(1-spiro[3.4]oct-2-ylpiperidin-4-yl)-1H-pyrazol-5-yl]pyrazolo[1,5-a]pyrimidine-3-carboxamide]
< 1 | – | Cc1ccc(-n2nc(C3CCN(C4CN(C(=O)NC(C)C)C4)CC3)cc2NC(=O)c2cnn3cccnc23)cc1 [Example 235, N-[3-(1-{1-[(1-methylethyl)carbamoyl]azetidin-3-yl}piperidin-4-yl)-1-(4-methylphenyl)-1H-pyrazol-5-yl]pyrazolo[1,5-a]pyrimidine-3-carboxamide]
– | < 0.1 | Cc1ccc(-n2nc(C3CCN(C4CCC4)CC3)cc2NC(=O)c2cnn3cccnc23)c(F)c1 [Example 59, N-(3-(1-cyclobutylpiperidin-4-yl)-1-(2-fluoro-4-methylphenyl)-1H-pyrazol-5-yl)pyrazolo[1,5-a]pyrimidine-3-carboxamide]
– | < 0.1 | Cc1ccc(-n2nc(N3CCN(C4CCOCC4)CC3)cc2NC(=O)c2cnn3cccnc23)nc1 [Example 321, N-{1-(5-methylpyridin-2-yl)-3-[4-(tetrahydro-2H-pyran-4-yl)piperazin-1-yl]-1H-pyrazol-5-yl}pyrazolo[1,5-a]pyrimidine-3-carboxamide]
– | < 0.1 | Cc1ccc(-n2nc(N3CCN(CC(C)C)CC3)cc2NC(=O)c2cnn3cccnc23)nc1 [Example 324, N-{3-[4-(2-methylpropyl)piperazin-1-yl]-1-(5-methylpyridin-2-yl)-1H-pyrazol-5-yl}pyrazolo[1,5-a]pyrimidine-3-carboxamide]
< 1 | – | COC(=O)N1CC(N2CCC(c3cc(NC(=O)c4cnn5cccnc45)n(-c4ccc(C)cc4)n3)CC2)C1 [Example 238, methyl 3-(4-{1′-(4-methylphenyl)-5-[(pyrazolo[1,5-a]pyrimidin-3-ylcarbonyl)amino]-1H-pyrazol-3-yl}piperidin-1-yl)azetidine-1-carboxylate]
– | < 0.1 | CN1CCC(c2cc(NC(=O)c3cnn4cccnc34)n(-c3ccc(C4CC4)cn3)n2)CC1 [Example 147, N-(1-(5-cyclopropylpyridin-2-yl)-3-(1-methylpiperidin-4-yl)-1H-pyrazol-5-yl)pyrazolo[1,5-a]pyrimidine-3-carboxamide]
– | < 0.1 | CNS(=O)(=O)c1ccc(-c2cc(NC(=O)c3cnn4cccnc34)n(-c3ccc(F)cc3F)n2)cc1 [Example 34, N-(1-(2,4-difluorophenyl)-3-(4-(N-methylsulfamoyl)phenyl)-1H-pyrazol-5-yl)pyrazolo[1,5-a]pyrimidine-3-carboxamide]
< 1 | – | Cc1ccc(-n2nc(C3CCN(C(=O)CO)CC3)cc2NC(=O)c2cnn3cc(Br)cnc23)cc1 [Example 112, 6-bromo-N-(3-(1-(2-hydroxyacetyl)piperidin-4-yl)-1-(p-tolyl)-1H-pyrazol-5-yl)pyrazolo[1,5-a]pyrimidine-3-carboxamide]
< 1 | – | Cc1ccc(-n2nc(C3CCN(S(=O)(=O)c4ccc5ncsc5c4)CC3)cc2NC(=O)c2cnn3cccnc23)cc1 [Example 384, N-{3-[1-(1,3-benzothiazol-6-ylsulfonyl)piperidin-4-yl]-1-(4-methylphenyl)-1H-pyrazol-5-yl}pyrazolo[1,5-a]pyrimidine-3-carboxamide]
– | < 0.1 | CNS(=O)(=O)c1ccc(-c2cc(NC(=O)c3cnn4cccnc34)n(-c3ccc(C)cc3)n2)cc1 [Example 347, N-{1-(4-methylphenyl)-3-[4-(methylsulfamoyl)phenyl]-1H-pyrazol-5-yl}pyrazolo[1,5-a]pyrimidine-3-carboxamide]
– | < 0.1 | CS(=O)(=O)N1CCC(c2cc(NC(=O)c3cnn4cccnc34)n(-c3ccc(C4CC4)cc3)n2)CC1 [Example 53, N-(1-(4-cyclopropylphenyl)-3-(1-(methylsulfonyl)piperidin-4-yl)-1H-pyrazol-5-yl)pyrazolo[1,5-a]pyrimidine-3-carboxamide]
< 1 | – | O=C(Nc1cc(C2CCNCC2)nn1-c1ccc(Br)cc1F)c1cnn2cccnc12 [Example 70, N-(1-(4-bromo-2-fluorophenyl)-3-(piperidin-4-yl)-1H-pyrazol-5-yl)pyrazolo[1,5-a]pyrimidine-3-carboxamide]
– | < 0.1 | Cc1ccc(-n2nc(C3CCN(C4CC(C(C)(C)C)C4)CC3)cc2NC(=O)c2cnn3cccnc23)cc1 (stereo not shown) [Example 256, N-{3-[1-(3-tert-butylcyclobutyl)piperidin-4-yl]-1-(4-methylphenyl)-1H-pyrazol-5-yl}pyrazolo[1,5-a]pyrimidine-3-carboxamide]
